Test results from patent US9624280B2 (JANSSEN BIOTECH, INC., priority 2013, dated 2017).
Entries after “also recorded” stand apart in the source; their conditions may differ. Like-named read-outs stand apart in the source and are kept apart here. No end group written: not given here.

Experiments:
human Nav1.6 = biological target: T1, human Nav1.6 (Homo sapiens, UniProt Q9UQD0); format: cell-based
T1 construct: expressed in transfected cells

C57Bl/6 mice [1] = test: CFA model of inflammatory pain, thermal hyperalgesia (Hargreaves test); format: in vivo; conditions: for Thermal MPE %: CFA model, mice, mean±s.e.m. (n)
Description: (§1) Male C57Bl/6 mice (24-26 g), ordered from Charles River and housed individually, were used for this study.
This box consists of a chamber with a raised glass floor maintained at a constant temperature (27° C.). The thermal nociceptive stimulus originates from a projection bulb light beam below the glass surface. The light beam is aimed at the area between toris (center plantar). The “start” button will turn on the light and start the timer. Movements (such as a sudden withdrawal) of the stimulated paw will trigger the switch to turn off the light and stop the timer. […] If no movement occurs, the bulb will be turned off after 20 seconds (cutoff) to prevent tissue injury. The animals were allowed to habituate on the glass surface for 30-60 minutes before PWL measurement.
(§2) Percent maximum possible effect (MPE %)=(T1−T0)/(Tc−T0)×100%. T0: threshold on day0 (post-CFA, pre-pump); T1: threshold on day1 post pump implantation; Tc: cut-off of the test (20 s for the Hargreaves test and 2 g for the Von Frey test)
(§3) Animals were anesthetized with isoflurane (4% induction and 2% maintenance) and 20 μL of 100% Complete Freund's Adjuvant (CFA; Sigma-Aldrich; Saint Louis, Mo.) was injected into the center plantar area on one hind paw using a 27 gauge needle attached to a 50 μL Hamilton syringe. Carrageenan model: Animals were anesthetized with isoflurane (4% induction and 2% maintenance) and 25 μL of 2% A-carrageenan (Sigma-Aldrich; Saint Louis, Mo.) dissolved in normal saline was injected into the center plantar area on hind paws using an insulin syringe (BD; Franklin Lakes, N.J.).
(§4) Alzet micro-osmotic mini pumps (Durect Corporation Model 1003D and 2001D) were filled and primed per manufacturer's guide. Mice were anesthetized with isoflurane (5% induction; 2% maintenance). Their backs were shaved, wiped down with isopropyl alcohol and povidone iodine, and a small incision was made between the scapulae. Using a pair of forceps or hemostat, a small pocket was formed by spreading the subcutaneous connective tissues apart. The pump was inserted into the pocket with the flow moderator pointing away from the incision. The skin incision was then closed using 7 mm staples and the animals were allowed to recover in their home cages.
(§5) Data are represented as mean±s.e.m. Prism (Graphpad Software Inc., La Jolla, Calif.) was used for graphing and statistical analysis. For comparison of threshold values over time, a two-way ANOVA followed by Bonferroni's multiple comparison test was used with a significance level of p<0.05. Hotplate and MPE % data were analyzed by one-way ANOVA followed by Bonferroni's multiple comparison test.

C57Bl/6 mice [2] = conditions: mouse, in vivo
C57Bl/6 mice [3] = test: CFA model, tactile allodynia (Von Frey test); format: in vivo
Description: as §1
7 graded stimuli (von Frey filaments: 0.03, 0.07, 0.16, 0.4, 0.6, 1, 2 g; Stoelting, Wood Dale, Ill.) were used. Von Frey hairs were presented perpendicularly against the center plantar area (between toris) on a hindpaw. Sufficient force was applied to bend the filament slightly and held for 3 seconds. Per the Chaplan paper, a positive response can be either 1) a sharp withdrawal or 2) immediate flinching upon removal of the filament. See Chaplan et al for more details. Mice were acclimated to the wire mesh in the testing chamber for 30-60 minutes prior to testing.
as §2, §3
as §4, with “The pump was inserted into the pocket with the flow moderator pointing away from the incision. The skin incision was then closed using 7 mm staples and the animals were allowed to recover in their home cages.” left out
Data are represented as mean±s.e.m. […] Hotplate and MPE % data were analyzed by one-way ANOVA followed by Bonferroni's multiple comparison test.

C57Bl/6 mice [4] = test: Hotplate test; format: in vivo
Description: as §1
Animals were placed on a 10″×10″ metal plate surrounded by 4 Plexiglas walls (15 inches high). The plate was maintained at a temperature of either 50 or 55° C. The response latency (time when the animal first flinches or licks its hind paw, jumps, or vocalizes) was measured and the animal removed from the plate. Animals showing no response were removed from the plate after 40 s (50° C.) or 20 s (55° C.) to prevent any possible tissue damage. This trial was repeated 2-5 times every 15-60 minutes in a day.
as §4, §5

human Nav1.5 = human Nav1.5 (Homo sapiens, UniProt Q14524)
isolated nerves = conditions: unless the perineural barrier is compromised; Hackel et al. 2012; cited from earlier work
rodent = conditions: Schmalhofer et al. 2008; cited from earlier work
[5] = 228 μg/day/mouse by subcutaneous osmotic mini-pump
[6] = 1824 μg/day/mouse by subcutaneous osmotic mini-pump
[7] = 684 and 1824 μg/day, subcutaneous osmotic mini-pump

T1 sequence (Q9UQD0 whole entry): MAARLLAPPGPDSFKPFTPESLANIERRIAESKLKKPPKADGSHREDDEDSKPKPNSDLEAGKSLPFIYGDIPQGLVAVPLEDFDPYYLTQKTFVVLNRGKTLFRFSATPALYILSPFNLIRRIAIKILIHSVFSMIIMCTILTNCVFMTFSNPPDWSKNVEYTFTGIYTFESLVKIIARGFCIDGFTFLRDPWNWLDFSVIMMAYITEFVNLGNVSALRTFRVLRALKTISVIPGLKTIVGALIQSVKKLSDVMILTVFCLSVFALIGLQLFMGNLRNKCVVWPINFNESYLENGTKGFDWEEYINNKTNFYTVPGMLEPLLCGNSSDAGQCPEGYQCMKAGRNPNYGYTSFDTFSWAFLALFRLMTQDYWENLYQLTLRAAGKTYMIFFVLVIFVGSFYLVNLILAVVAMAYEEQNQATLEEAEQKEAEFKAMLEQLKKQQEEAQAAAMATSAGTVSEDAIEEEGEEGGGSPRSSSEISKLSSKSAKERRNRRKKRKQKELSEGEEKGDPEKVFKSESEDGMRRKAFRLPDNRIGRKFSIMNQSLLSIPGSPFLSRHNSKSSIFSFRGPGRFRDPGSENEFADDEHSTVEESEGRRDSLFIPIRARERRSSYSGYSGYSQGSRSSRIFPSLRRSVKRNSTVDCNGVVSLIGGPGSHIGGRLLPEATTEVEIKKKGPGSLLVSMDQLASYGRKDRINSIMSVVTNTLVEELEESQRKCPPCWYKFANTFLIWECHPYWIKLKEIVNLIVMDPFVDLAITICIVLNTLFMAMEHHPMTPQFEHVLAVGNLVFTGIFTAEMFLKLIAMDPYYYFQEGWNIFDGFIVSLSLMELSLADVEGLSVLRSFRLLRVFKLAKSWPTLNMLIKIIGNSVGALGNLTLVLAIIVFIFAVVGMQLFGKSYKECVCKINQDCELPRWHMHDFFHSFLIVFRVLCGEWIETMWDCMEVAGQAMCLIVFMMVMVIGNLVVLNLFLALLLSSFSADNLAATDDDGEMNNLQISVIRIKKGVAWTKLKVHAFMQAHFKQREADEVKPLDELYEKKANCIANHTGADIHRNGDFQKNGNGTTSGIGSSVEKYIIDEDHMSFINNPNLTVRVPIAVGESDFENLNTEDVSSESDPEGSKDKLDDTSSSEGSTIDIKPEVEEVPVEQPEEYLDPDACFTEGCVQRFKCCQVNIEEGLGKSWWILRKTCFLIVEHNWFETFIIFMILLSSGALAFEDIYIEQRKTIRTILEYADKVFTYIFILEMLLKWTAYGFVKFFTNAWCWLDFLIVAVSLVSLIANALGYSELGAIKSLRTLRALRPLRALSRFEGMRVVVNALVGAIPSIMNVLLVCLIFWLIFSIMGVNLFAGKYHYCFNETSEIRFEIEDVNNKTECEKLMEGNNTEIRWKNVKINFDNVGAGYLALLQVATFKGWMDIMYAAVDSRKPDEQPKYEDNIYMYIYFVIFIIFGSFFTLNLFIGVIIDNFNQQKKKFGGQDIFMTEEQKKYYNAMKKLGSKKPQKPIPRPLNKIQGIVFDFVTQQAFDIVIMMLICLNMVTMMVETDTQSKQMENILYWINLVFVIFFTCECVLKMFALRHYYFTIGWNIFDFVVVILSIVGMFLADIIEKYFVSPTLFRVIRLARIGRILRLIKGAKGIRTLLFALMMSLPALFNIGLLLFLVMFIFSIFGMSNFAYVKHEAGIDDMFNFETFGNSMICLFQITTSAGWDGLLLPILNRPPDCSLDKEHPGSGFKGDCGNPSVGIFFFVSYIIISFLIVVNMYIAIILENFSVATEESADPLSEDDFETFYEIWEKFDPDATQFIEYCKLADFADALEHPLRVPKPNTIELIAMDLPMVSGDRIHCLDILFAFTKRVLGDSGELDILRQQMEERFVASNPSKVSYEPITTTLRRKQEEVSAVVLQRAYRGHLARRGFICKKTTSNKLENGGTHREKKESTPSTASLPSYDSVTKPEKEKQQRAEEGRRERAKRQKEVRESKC
Sequence of human Nav1.5 (Q14524 whole entry): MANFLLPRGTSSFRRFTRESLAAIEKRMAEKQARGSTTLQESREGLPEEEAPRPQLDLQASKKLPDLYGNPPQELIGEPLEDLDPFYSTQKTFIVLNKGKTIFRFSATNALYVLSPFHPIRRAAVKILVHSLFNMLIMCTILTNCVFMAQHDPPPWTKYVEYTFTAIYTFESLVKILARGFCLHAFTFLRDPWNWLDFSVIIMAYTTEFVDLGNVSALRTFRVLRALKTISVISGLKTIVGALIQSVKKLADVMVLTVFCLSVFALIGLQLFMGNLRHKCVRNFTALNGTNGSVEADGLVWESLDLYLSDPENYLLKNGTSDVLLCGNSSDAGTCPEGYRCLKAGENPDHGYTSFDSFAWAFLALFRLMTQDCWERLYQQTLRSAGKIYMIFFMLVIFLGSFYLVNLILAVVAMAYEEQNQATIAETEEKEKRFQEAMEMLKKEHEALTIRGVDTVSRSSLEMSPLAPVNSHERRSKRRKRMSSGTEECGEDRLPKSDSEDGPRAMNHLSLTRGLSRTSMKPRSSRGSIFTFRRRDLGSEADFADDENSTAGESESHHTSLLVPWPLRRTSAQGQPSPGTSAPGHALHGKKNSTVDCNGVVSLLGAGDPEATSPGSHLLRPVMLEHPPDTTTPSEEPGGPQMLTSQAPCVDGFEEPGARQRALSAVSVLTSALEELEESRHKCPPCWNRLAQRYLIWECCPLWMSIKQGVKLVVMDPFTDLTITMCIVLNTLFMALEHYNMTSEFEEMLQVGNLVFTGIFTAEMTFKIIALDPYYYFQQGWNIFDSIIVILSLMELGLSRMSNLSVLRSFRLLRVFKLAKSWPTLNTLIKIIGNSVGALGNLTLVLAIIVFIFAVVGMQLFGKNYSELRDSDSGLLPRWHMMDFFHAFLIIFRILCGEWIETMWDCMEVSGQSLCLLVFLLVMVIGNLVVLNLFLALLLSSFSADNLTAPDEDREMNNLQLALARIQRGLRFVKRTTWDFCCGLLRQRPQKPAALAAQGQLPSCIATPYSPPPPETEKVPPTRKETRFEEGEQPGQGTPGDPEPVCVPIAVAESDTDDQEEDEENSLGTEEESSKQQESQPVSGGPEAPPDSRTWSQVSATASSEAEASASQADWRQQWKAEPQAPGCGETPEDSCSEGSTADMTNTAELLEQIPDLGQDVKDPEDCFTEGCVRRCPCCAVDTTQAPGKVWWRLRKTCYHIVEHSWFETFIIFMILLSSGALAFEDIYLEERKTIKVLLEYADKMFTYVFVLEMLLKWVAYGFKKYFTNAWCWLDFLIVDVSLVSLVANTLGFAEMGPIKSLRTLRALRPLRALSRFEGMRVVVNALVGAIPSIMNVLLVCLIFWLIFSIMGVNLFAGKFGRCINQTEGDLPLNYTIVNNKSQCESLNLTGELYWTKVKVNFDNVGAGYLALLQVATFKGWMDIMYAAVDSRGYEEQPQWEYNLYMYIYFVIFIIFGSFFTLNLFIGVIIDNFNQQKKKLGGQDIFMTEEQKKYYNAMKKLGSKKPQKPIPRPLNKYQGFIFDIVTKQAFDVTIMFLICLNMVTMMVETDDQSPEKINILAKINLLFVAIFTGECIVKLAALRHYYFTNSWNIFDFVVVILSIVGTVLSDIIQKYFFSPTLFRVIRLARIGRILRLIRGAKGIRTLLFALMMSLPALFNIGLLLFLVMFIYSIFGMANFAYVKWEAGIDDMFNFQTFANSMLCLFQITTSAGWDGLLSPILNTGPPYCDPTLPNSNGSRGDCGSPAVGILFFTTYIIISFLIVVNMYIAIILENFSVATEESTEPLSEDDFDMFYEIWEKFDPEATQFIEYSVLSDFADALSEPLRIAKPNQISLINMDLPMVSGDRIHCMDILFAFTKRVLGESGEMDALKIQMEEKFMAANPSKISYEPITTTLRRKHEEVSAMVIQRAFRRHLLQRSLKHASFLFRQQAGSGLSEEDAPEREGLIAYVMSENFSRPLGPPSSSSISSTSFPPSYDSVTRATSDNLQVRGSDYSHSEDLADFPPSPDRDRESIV

For “GPQCQKWMQTCDAERKCCEGFVCRLWCKKKLW-OH (cysteine pairing not given here) [NV1D2775]”, the “selectivity for Nav1.7 compared to recombinant Protoxin-II” value (“selectivity” below) (human Nav1.6) was “improved selectivity”, the “thermal latencies after peptide administration” value (C57Bl/6 mice [1]; 1824 μg/day, cut-off 20 s) was “close to the cut-off” and the “Thermal MPE %” value (C57Bl/6 mice [1]; [5]) was 35 ± 8 (8) %. The “Thermal MPE %” value (C57Bl/6 mice [1]; [6]) was 85 ± 6 %, the “efficacy in the CFA model” value (C57Bl/6 mice [1]; mouse, in vivo) was “strong efficacy” and the “time at which anti-hyperalgesic effect was first seen, post-pump implantation” value (C57Bl/6 mice [1]; mouse, in vivo) was 4 h. For the same substance, the “time at which effect reached the maximum, thermal test” value (C57Bl/6 mice [1]; mouse, in vivo) was 8 h, the “time by which thermal latency returned to control level post pump implantation” value (C57Bl/6 mice [1]; mouse, in vivo) was at most 48 h and the “analgesia, thermal withdrawal latency on day1 post-pump” value (C57Bl/6 mice [2]) was “significant analgesia”. The “protection from carrageenan-induced thermal hyperalgesia” value (C57Bl/6 mice [2]) was “fully protected”, the CFA-induced tactile allodynia (C57Bl/6 mice [3]; 1824 μg/day) was “reversed” and the “time at which effect reached the maximum, tactile test” value (C57Bl/6 mice [3]; mouse, in vivo) was 8 h. For the same substance, the “time by which tactile threshold returned to control level post pump implantation” value (C57Bl/6 mice [3]; mouse, in vivo) was at most 48 h, the “hotplate thermal latency compared to the PBS control” value (C57Bl/6 mice [4]; 228 μg/day) was “modest yet significant increase” and the “hotplate latencies at 50 and 55° C.” value (C57Bl/6 mice [4]; 1824 μg/day) was “near cut-off”. The “efficacy in the hotplate test” value (C57Bl/6 mice [4]; mouse, in vivo, listed as NV1D2775-OH) was “strong, dose-dependent efficacy; also recorded: significant analgesia”.

In the case of “GPQCQKWMQTCDRERKCCEGFVCTLWCRKKLW-NH-methyl [NV1D3034-NH-methyl]”, the “selectivity” value (human Nav1.6) is reported as “improved selectivity”, the “Thermal MPE %” value (C57Bl/6 mice [1]; [6]) is reported as 49 ± 17 (6) % and the “reversal of CFA-induced thermal hyperalgesia” value (“reversal” for short) (C57Bl/6 mice [1]; dose not given) is reported as “readily reversed”.

For “GPQCQKWMQTCDRERKCCEGFVCTLWCRKKLW-OH (cysteine pairing not given here) [NV1D3034]”, the “reversal” value (C57Bl/6 mice [1]; [7]) was “completely reversed”, the “Thermal MPE %” value (C57Bl/6 mice [1]; [5]) was 22 ± 6 (6) % and the “Thermal MPE %” value (C57Bl/6 mice [1]; [6]) was 50 ± 6 (8) %.

With “GPQCQKWMQTCDRTRKCCEGFVCTLWCRKKLW-NH2 [NV1D3368-NH2]” the “selectivity” value (human Nav1.6) was “improved selectivity”, the “Thermal MPE %” value (C57Bl/6 mice [1]; [5]) was 27 ± 4 (4) % and the “Thermal MPE %” value (C57Bl/6 mice [1]; [6]) was 55 ± 15 (6) %. The “reversal” value (C57Bl/6 mice [1]; dose not given) was “readily reversed”.

With “GPQCQKWMQTCDRTRKCCEGFVCTLWCRKKLW-OH (cysteine pairing not given here) [NV1D3368]” the “selectivity” value (human Nav1.6) was “improved selectivity”, the “reversal” value (C57Bl/6 mice [1]; [7]) was “fully reversed” and the “Thermal MPE %” value (C57Bl/6 mice [1]; [5]) was 23 ± 8 (7) %. The “Thermal MPE %” value (C57Bl/6 mice [1]; [6]) was 47 ± 6 (8) %.

“GPSCQKWMQTCDAERKCCEGFVCRLWCKKKLW-OH (cysteine pairing not given here) [NV1D2773]” showed an IC50 (human Nav1.5; human, pH 7.4) of over 3 µM.

Substance “GPYCQKWMWTCDSERKCCEGMVCRLWCKKKLW-COOH [NV1D12, reference compound]” has an IC50 (human Nav1.6; read-out: IC50 for Nav1.6, QPatch electrophysiology assay) of about 0.062 µM and an IC50 (human Nav1.5) of over 1 µM.

In the case of “YCQKWMWTCDSERKCCEGMVCRLWCKKKLW-COOH [wild type Protoxin-II]”, the “inhibition of action potential firing in isolated nerves” value (isolated nerves) is given as “inability” and the “efficacy in rodent models of acute and inflammatory pain” value (rodent) is given as “non-efficacious”.
